# Results reported in patent US20250230193A1, “CYCLIC COMPOUND HAVING SELECTIVE KRAS INHIBITORY EFFECT ON HRAS AND NRAS” (CHUGAI SEIYAKU KABUSHIKI KAISHA, priority 2022, published 2025).
# Columns and labels:
# [1] = target: GDP-bound NRAS wild-type protein (Homo sapiens, UniProt P01111); experiment: Binding to NRAS by surface plasmon resonance (SPR), Single Cycle Kinetics; conditions: SPR, GDP-bound NRAS wild-type vs GDP-bound KRAS wild-type
# [2] = target: GDP-bound HRAS wild-type protein (Homo sapiens, UniProt P01112); experiment: Binding to HRAS by surface plasmon resonance (SPR), Single Cycle Kinetics; conditions: SPR, GDP-bound HRAS wild-type vs GDP-bound KRAS wild-type
# Sequence of GDP-bound HRAS wild-type protein (P01112 whole entry): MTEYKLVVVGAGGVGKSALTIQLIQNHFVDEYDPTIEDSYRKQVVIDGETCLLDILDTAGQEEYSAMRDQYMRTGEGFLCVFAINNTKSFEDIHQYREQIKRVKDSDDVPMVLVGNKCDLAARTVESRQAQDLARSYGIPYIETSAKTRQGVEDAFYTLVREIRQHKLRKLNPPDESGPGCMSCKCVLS
# Sequence of GDP-bound NRAS wild-type protein (P01111 whole entry): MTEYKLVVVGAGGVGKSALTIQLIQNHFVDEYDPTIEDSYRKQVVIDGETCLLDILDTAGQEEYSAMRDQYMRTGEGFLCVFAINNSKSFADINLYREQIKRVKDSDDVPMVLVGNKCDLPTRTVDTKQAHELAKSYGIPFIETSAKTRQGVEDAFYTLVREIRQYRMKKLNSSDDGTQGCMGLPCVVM
Compound,NRAS/KRAS (ratio of KD value with respect to NRAS to KD value with respect to KRAS) [1],HRAS/KRAS (ratio of KD value with respect to HRAS to KD value with respect to KRAS) [2]
CCO[C@H](C)[C@@H]1NC(=O)[C@H](CC(C)C)N(C)C(=O)C[C@@H](C(=O)N(C)CC)N(C)C(=O)[C@H](C2CCCC2)N(C)C(=O)C2(CC(C)(C)C2)NC(=O)[C@@H]2C[C@H](C)CN2C(=O)[C@H](CCc2ccc(C(F)(F)F)c(OC)c2)NC(=O)CN(C)C(=O)[C@H](Cc2ccc(C)cc2)N2CC/C=C\C[C@@H](C2=O)N(C)C(=O)CN(C)C1=O [PP2413],A (a compound having 10 or more and less than 20 is denoted as A),A (a compound having 10 or more and less than 20 is denoted as A)
CCO[C@H](C)[C@@H]1NC(=O)[C@H](CC(C)C)N(C)C(=O)C[C@@H](C(=O)N(C)CC)N(C)C(=O)[C@H](C2CCCC2)N(C)C(=O)C2(CC(C)(C)C2)NC(=O)[C@@H]2C[C@H](C)CN2C(=O)[C@H](CCc2cc(F)c(C(F)(F)F)c(F)c2)NC(=O)CN(C)C(=O)[C@H](Cc2ccc(C)cc2)N2CC/C=C\C[C@@H](C2=O)N(C)C(=O)CN(C)C1=O [PP2414],A (a compound having 10 or more and less than 20 is denoted as A),A (a compound having 10 or more and less than 20 is denoted as A)
CCCO[C@H](C)[C@@H]1NC(=O)[C@H](CC(C)C)N(C)C(=O)C[C@@H](C(=O)N(C)C)N(C)C(=O)[C@H](C2CCCC2)N(C)C(=O)C2(CC(C)(C)C2)NC(=O)[C@@H]2C[C@H](C)CN2C(=O)[C@H](CCc2ccc(C(F)(F)F)c(OC)c2)NC(=O)CN(C)C(=O)[C@H](Cc2ccc(C)cc2)N2CC/C=C\C[C@@H](C2=O)N(C)C(=O)CN(C)C1=O [PP2415],AA (a compound having 20 or more is denoted as AA),A (a compound having 10 or more and less than 20 is denoted as A)
CCCO[C@H](C)[C@@H]1NC(=O)[C@H](CC(C)C)N(C)C(=O)C[C@@H](C(=O)N(C)CC)N(C)C(=O)[C@H](C2CCCC2)N(C)C(=O)C2(CC(C)(C)C2)NC(=O)[C@@H]2C[C@H](C)CN2C(=O)[C@H](CCc2ccc(C(F)(F)F)c(OC)c2)NC(=O)CN(C)C(=O)[C@H](Cc2ccc(C)cc2)N2CC/C=C\C[C@@H](C2=O)N(C)C(=O)CN(C)C1=O [PP2416],A (a compound having 10 or more and less than 20 is denoted as A),B (a compound having 3 or more and less than 10 is denoted as B)
CCCO[C@H](C)[C@@H]1NC(=O)[C@H](CC(C)C)N(C)C(=O)C[C@@H](C(=O)N(C)CC)N(C)C(=O)[C@H](C2CCCC2)N(C)C(=O)C2(CC(C)(C)C2)NC(=O)[C@@H]2C[C@H](C)CN2C(=O)[C@H](CCc2cc(F)c(C(F)(F)F)c(F)c2)NC(=O)CN(C)C(=O)[C@H](Cc2ccc(C)cc2)N2CC/C=C\C[C@@H](C2=O)N(C)C(=O)CN(C)C1=O [PP2417],A (a compound having 10 or more and less than 20 is denoted as A),A (a compound having 10 or more and less than 20 is denoted as A)
CCO[C@H](C)[C@@H]1NC(=O)[C@H](CC(C)C)N(C)C(=O)C[C@@H](C(=O)N(C)C)N(C)C(=O)[C@H](C2CCCC2)N(C)C(=O)C2(CC(C)(C)C2)NC(=O)[C@@H]2C[C@H](C)CN2C(=O)[C@H](CCc2ccc(C(F)(F)F)c(OC)c2)NC(=O)CN(C)C(=O)[C@H](Cc2ccc(C)cc2)N2CC/C=C\C[C@@H](C2=O)N(C)C(=O)[C@@H]2CCCN2C1=O [PP2418],A (a compound having 10 or more and less than 20 is denoted as A),B (a compound having 3 or more and less than 10 is denoted as B)
CCO[C@H](C)[C@@H]1NC(=O)[C@H](CC(C)C)N(C)C(=O)C[C@@H](C(=O)N(C)CC)N(C)C(=O)[C@H](C2CCCC2)N(C)C(=O)C2(CC(C)(C)C2)NC(=O)[C@@H]2C[C@H](C)CN2C(=O)[C@H](CCc2ccc(C(F)(F)F)c(OC)c2)NC(=O)CN(C)C(=O)[C@H](Cc2ccc(C)cc2)N2CC/C=C\C[C@@H](C2=O)N(C)C(=O)[C@@H]2CCCN2C1=O [PP2419],A (a compound having 10 or more and less than 20 is denoted as A),A (a compound having 10 or more and less than 20 is denoted as A)
CCOC[C@H]1C(=O)N[C@@H]([C@@H](C)OCC)C(=O)N(C)CC(=O)N(C)[C@H]2C/C=C\CCN(C2=O)[C@@H](Cc2ccc(C)cc2)C(=O)N(C)CC(=O)N[C@@H](CCc2cc(F)c(C(F)(F)F)c(F)c2)C(=O)N2C[C@@H](C)C[C@H]2C(=O)NC2(CC(C)(C)C2)C(=O)N(C)[C@@H](C2CCCC2)C(=O)N(C)[C@H](C(=O)N(C)CC)CC(=O)N1C [PP2422],A (a compound having 10 or more and less than 20 is denoted as A),A (a compound having 10 or more and less than 20 is denoted as A)
CCCOC[C@H]1C(=O)N[C@@H]([C@@H](C)OCC)C(=O)N(C)CC(=O)N(C)[C@H]2C/C=C\CCN(C2=O)[C@@H](Cc2ccc(C)cc2)C(=O)N(C)CC(=O)N[C@@H](CCc2ccc(C(F)(F)F)c(OC)c2)C(=O)N2C[C@@H](C)C[C@H]2C(=O)NC2(CC(C)(C)C2)C(=O)N(C)[C@@H](C2CCCC2)C(=O)N(C)[C@H](C(=O)N(C)CC)CC(=O)N1C [PP2423],A (a compound having 10 or more and less than 20 is denoted as A),A (a compound having 10 or more and less than 20 is denoted as A)
CCCOC[C@H]1C(=O)N[C@@H]([C@@H](C)OCC)C(=O)N(C)CC(=O)N(C)[C@H]2C/C=C\CCN(C2=O)[C@@H](Cc2ccc(C)cc2)C(=O)N(C)CC(=O)N[C@@H](CCc2cc(F)c(C(F)(F)F)c(F)c2)C(=O)N2C[C@@H](C)C[C@H]2C(=O)NC2(CC(C)(C)C2)C(=O)N(C)[C@@H](C2CCCC2)C(=O)N(C)[C@H](C(=O)N(C)CC)CC(=O)N1C [PP2424],A (a compound having 10 or more and less than 20 is denoted as A),A (a compound having 10 or more and less than 20 is denoted as A)
CCCO[C@H](C)[C@@H]1NC(=O)[C@H](COCC)N(C)C(=O)C[C@@H](C(=O)N(C)CC)N(C)C(=O)[C@H](C2CCCC2)N(C)C(=O)C2(CC(C)(C)C2)NC(=O)[C@@H]2C[C@H](C)CN2C(=O)[C@H](CCc2ccc(C(F)(F)F)c(OC)c2)NC(=O)CN(C)C(=O)[C@H](Cc2ccc(C)cc2)N2CC/C=C\C[C@@H](C2=O)N(C)C(=O)CN(C)C1=O [PP2425],AA (a compound having 20 or more is denoted as AA),A (a compound having 10 or more and less than 20 is denoted as A)
CCCO[C@H](C)[C@@H]1NC(=O)[C@H](COCC)N(C)C(=O)C[C@@H](C(=O)N(C)CC)N(C)C(=O)[C@H](C2CCCC2)N(C)C(=O)C2(CC(C)(C)C2)NC(=O)[C@@H]2C[C@H](C)CN2C(=O)[C@H](CCc2cc(F)c(C(F)(F)F)c(F)c2)NC(=O)CN(C)C(=O)[C@H](Cc2ccc(C)cc2)N2CC/C=C\C[C@@H](C2=O)N(C)C(=O)CN(C)C1=O [PP2426],AA (a compound having 20 or more is denoted as AA),A (a compound having 10 or more and less than 20 is denoted as A)
CCOC[C@H]1C(=O)N[C@@H]([C@@H](C)CC)C(=O)N2CCC[C@H]2C(=O)N(C)[C@H]2C/C=C\CCN(C2=O)[C@@H](Cc2ccc(C)cc2)C(=O)N(C)CC(=O)N[C@@H](CCc2ccc(C(F)(F)F)c(OC)c2)C(=O)N2C[C@@H](C)C[C@H]2C(=O)NC2(CC(C)(C)C2)C(=O)N(C)[C@@H](C2CCCC2)C(=O)N(C)[C@H](C(=O)N(C)CC)CC(=O)N1C [PP2427],AA (a compound having 20 or more is denoted as AA),A (a compound having 10 or more and less than 20 is denoted as A)
CCOC[C@H]1C(=O)N[C@@H]([C@@H](C)CC)C(=O)N2CCC[C@H]2C(=O)N(C)[C@H]2C/C=C\CCN(C2=O)[C@@H](Cc2ccc(C)cc2)C(=O)N(C)CC(=O)N[C@@H](CCc2cc(F)c(C(F)(F)F)c(F)c2)C(=O)N2C[C@H](OCC)C[C@H]2C(=O)NC2(CC(C)(C)C2)C(=O)N(C)[C@@H](C2CCCC2)C(=O)N(C)[C@H](C(=O)N(C)CC)CC(=O)N1C [PP2428],A (a compound having 10 or more and less than 20 is denoted as A),A (a compound having 10 or more and less than 20 is denoted as A)
CCCOC[C@H]1C(=O)N[C@@H]([C@@H](C)CC)C(=O)N2CCC[C@H]2C(=O)N(C)[C@H]2C/C=C\CCN(C2=O)[C@@H](Cc2ccc(C)cc2)C(=O)N(C)CC(=O)N[C@@H](CCc2ccc(C(F)(F)F)c(OC)c2)C(=O)N2C[C@@H](C)C[C@H]2C(=O)NC2(CC(C)(C)C2)C(=O)N(C)[C@@H](C2CCCC2)C(=O)N(C)[C@H](C(=O)N(C)CC)CC(=O)N1C [PP2429],A (a compound having 10 or more and less than 20 is denoted as A),B (a compound having 3 or more and less than 10 is denoted as B)
CCCOC[C@H]1C(=O)N[C@@H]([C@@H](C)CC)C(=O)N2CCC[C@H]2C(=O)N(C)[C@H]2C/C=C\CCN(C2=O)[C@@H](Cc2ccc(C)cc2)C(=O)N(C)CC(=O)N[C@@H](CCc2cc(F)c(C(F)(F)F)c(F)c2)C(=O)N2C[C@H](C)C[C@H]2C(=O)NC2(CC(C)(C)C2)C(=O)N(C)[C@@H](C2CCCC2)C(=O)N(C)[C@H](C(=O)N(C)CC)CC(=O)N1C [PP2430],AA (a compound having 20 or more is denoted as AA),A (a compound having 10 or more and less than 20 is denoted as A)
